{
  "source": "patent US20030211076A1",
  "about": "“Compositions and methods for treatment of proliferative disorders” (priority 2003, published 2003)",
  "type_in_all_cases": "cell-based",
  "key": {"[1]": {"test_system": "ERK1 and ERK2 MAP kinases", "assay": "FGF2-stimulated MAP kinase phosphorylation, Western blot", "experimental": "Since activation of MAP kinases by FGF2 is one of the earliest mitogenic signaling events within cells (Maher), the effects of LO on FGF2-stimulated MAP kinase phosphorylation were tested by Western blot analysis using an antibody specific for phospho-extracellular signal-regulated kinases 1 and 2 (ERK1 and ERK2). The amount of total ERK1 and ERK2 MAP kinases within the same cell extracts was determined by using an antibody that recognizes both the phospho- and non-phospho-forms of ERK1 and ERK2. […] Cell extracts were prepared and equal amounts of proteins (25 μg) were analyzed by 10% SDS-PAGE. Immunoblotting was performed using antibodies specific for the active forms of ERK1 and ERK2 (A) and total ERKs (B)."}, "[2]": {"test_system": "porcine pulmonary arterial VEC", "assay": "Growth of VEGF165-stimulated VEC (cell counting)", "experimental": "The effects of LO oxidized VEGF165 on cell proliferation was also assessed. VEGF165 is a potent mitogen for vascular endothelial cells (VEC). Porcine pulmonary arterial VEC (2×10^4) were plated and incubated overnight in 35 mm-dishes containing 2 ml 15% FBS/M199 medium, and then refed with 5% FBS/M199 with different treatment regimens as shown in A, B and C of FIG. 18. FIG. 18A represents a dose response of VEGF165-stimulated cell growth. Media were supplemented with VEGF165 at the indicated doses and cells were incubated for additional 3 days. Cultures were refed once during the incubation period with fresh media supplemented with VEGF165 at indicated doses. Cells were harvested by trypsinization and counted with a hemacytometer. FIG. 18B represents the LO inhibition of VEGF165-stimulated cell growth. FIG. 18C represents the effects of inactivation of LO by BAPN on VEGF165-stimulated cell growth. […] Data represent the means (±sd) of three separate experiments each assessed with triplicate dishes."}, "[3]": {"test_system": "growth-arrested Swiss 3T3 cells", "assay": "FGF2-stimulated cell cycle progression, FACS analysis", "experimental": "The activity of native and LO-oxidized FGF2 on cell cycle progression was evaluated by using fluorescence activated cell sorting (FACS) analysis (Darzynkiewicz et al.). Swiss 3T3 cells were growth-arrested by incubation in 0.3% fetal bovine serum (FBS)/Dulbecco's Modified Eagle's Medium (DMEM) for 3 days. As depicted in FIGS. 6A-6C, the prepared growth-arrested cells were treated for 20 h at 37° C. with or without FGF2, LO, BAPN or their combinations as indicated. After treatment, cells were washed, suspended by treatment with trypsin, washed again and fixed in 0.5% formaldehyde/0.1% Triton X-100/PBS for 15 minutes on ice followed by incubation of samples in 10 μg propidium iodide and 20 units RNAse per ml of PBS for 60 minutes in the dark for DNA staining. The fluorescence intensities of each sample of 10,000 cells in G1, S and G2/M phases were measured by flow cytometry at the FL2 setting of the fluorescence activated cell sorting (FACS) instrument (Becton-Dickinson Corp.). […] LO was presented at 10 nM, FGF2 at 5 ng ml^−1 and BAPN at 100 μM. Data represent the means (+sd) of three separate experiments each assessed with duplicate dishes."}, "[4]": {"test_system": "porcine pulmonary arterial vascular endothelial cells (VEC)", "assay": "Growth of Tat-stimulated vascular endothelial cells (cell counting, phase-contrast microscopy)", "experimental": "Stimulation of cell proliferation of porcine pulmonary arterial vascular endothelial cells (VEC) was tested with LO-oxidized Tat. VEC (2×10^4) were plated and incubated overnight in 35 mm-dishes containing 2 ml 15% FBS/M199 medium, and then refed with 5% FBS/M199 with different treatment regimens as shown in A, B and C of FIG. 13. FIG. 13A represents a dose response of Tat-stimulated cell growth. Media were supplemented with Tat at the indicated doses and cells were incubated for additional 3 days. Cultures were refed once during the incubation period with fresh media supplemented with Tat at indicated doses. Cells were harvested by trypsinization and counted with a hemacytometer. FIG. 13B represents the LO inhibition of Tat-stimulated cell growth. FIG. 13C represents the effects of inactivation of LO by BAPN on Tat-stimulated cell growth. LO: 3 or 10 nM, Tat: 10 ng ml^−1, BAPN: 100 μM. Data represent the means (±sd) of three separate experiments each assessed with triplicate dishes.\nNumerical and morphological alterations in Tat-stimulated VEC cells treated with LO were observed under phase-contrast microscopy (25'). Cells were cultured as described in FIG. 13 and treated with additives as indicated below. The following represents FIG. 14 phase contrast microscopy: A, control; B, 10 ng ml^−1Tat; C, 10 ng ml^−1 Tat+3 nM LO; D, 10 ng ml^−1 Tat+3 nM LO that was preincubated with 100 μM BAPN for 15 min at 370; E, 100 μM BAPN, alone, and F, 3 nM LO, alone."}, "[5]": {"test_system": "growth-arrested Swiss 3T3 cells", "assay": "PDGF-AB-stimulated cell cycle progression, FACS analysis", "experimental": "Growth-arrested Swiss 3T3 cells were incubated for 20 h at 37° C. with or without PDGF-AB, LO, BAPN or their combinations as indicated. After incubation, FACS analysis was carried out to characterize the cell cycle progression under different conditions as described in FIG. 6. FIG. 20A represents a dose response of PDGF-AB in cell cycle progression. FIG. 20B represents the LO inhibition of PDGF-AB-stimulated cell cycle progression (the control represents cells treated with 15 ng ml^−1 PDGF-AB in the absence of added LO). FIG. 20C represents the effects of inactivation of LO by BAPN on PDGF-AB-stimulated the cell cycle progression. LO: 15 nM, PDGF-AB: 15 ng ml^−1, BAPN: 100 AM. Data represent the means (±sd) of three separate experiments each assessed with triplicate dishes."}},
  "note": "“Also recorded” adds a separate entry of the source.",
  "data": [
    {"molecule": "N#CCCN", "note": "[BAPN, β-Aminopropionitrile, reference compound]", "values": [
      {"measurement": "effect on LO inhibition of FGF2 activation of MAP kinases", "setting": "[1]; 5 ng/ml FGF2 + 10 nM LO + 100 μM BAPN", "result": "abolished"},
      {"measurement": "state of phosphorylation of MAP kinases", "setting": "[1]; 100 μM BAPN alone", "result": "did not affect"},
      {"measurement": "effect on LO inhibition of VEGF165-stimulated VEC proliferation", "setting": "[2]; 100 μM BAPN", "result": "effectively blocked"},
      {"measurement": "response relative to that observed with FGF2 alone", "setting": "[3]; FGF2 5 ng/ml treated with 10 nM LO and 100 μM BAPN", "result": "82±6", "unit": "%"},
      {"measurement": "cell growth", "setting": "[4]; 100 μM BAPN alone", "result": "had no effect on the cell growth"},
      {"measurement": "effect on LO inhibition of Tat-stimulated cell growth", "setting": "[4]; 100 μM BAPN, LO 3 or 10 nM, Tat 10 ng/ml", "result": "totally inhibited; also recorded: cells sustained growth to confluence"},
      {"measurement": "cell cycle progression relative to the level stimulated with PDGF-AB alone", "setting": "[5]; 100 μM BAPN with LO 15 nM and 0.56 nM PDGF", "result": 100.4, "unit": "%"}
    ]},
    {"molecule": "lysyl oxidase [LO]", "values": [
      {"measurement": "levels of phospho-MAP kinases", "setting": "[1]; 5 ng/ml FGF2 and 10 nM LO, 10 min", "result": "reduced"},
      {"measurement": "levels of phospho-ERK1/2", "setting": "[1]; 10 nM LO without BAPN or FGF2", "result": "slightly increased"},
      {"measurement": "VEGF165-dependent cell growth", "setting": "[2]; VEGF165 15 ng/ml", "result": "inhibited VEGF165-dependent cell growth with increased doses"},
      {"measurement": "maximal decrease of FGF2 stimulation of cell cycle progression", "setting": "[3]; 10 nM (0.32 μg/ml) LO, 0.28 nM FGF2", "result": 80, "unit": "%"},
      {"measurement": "Tat-dependent cell proliferation", "setting": "[4]; LO at 3 nM, Tat 10 ng/ml", "result": "effectively suppressed the Tat-dependent cell proliferation to the control level; also recorded: the growth stimulating ability of Tat was inhibited"},
      {"measurement": "cell numbers", "setting": "[4]; LO at doses ≧10 nM, Tat 10 ng/ml", "result": "severe loss in cell numbers below the control"},
      {"measurement": "decrease of PDGF-AB-induced cell cycle progression", "setting": "[5]; 15 nM (0.48 μg/ml) LO, 0.56 nM PDGF-AB", "result": 73, "unit": "%"}
    ]}
  ]
}
